Reference: patent publication US9453242B2, “Method and culture medium for preparing mammalian ovum or embryo in which zona pellucida has been thinned or eliminated, and method for fertilization using mammalian ovum prepared by same method” (NATIONAL UNIVERISTY CORPORATION KUMAMOTO UNIVERSITY, priority 2010, dated 2016)
Where two headings read alike, the source gives them in different places.

Legend:
[1] = Protocol: Mouse fresh unfertilized ovums in which cumulus cells had been removed prepared according to the above-described “1. Preparation of oocyte” were prepared, then, 10 μl of an HTF culture medium containing glutathione at various concentrations (5, 10, 25, 50, 100, 200 and 300 mM) was dropped onto the bottom of a petri dish, and 20 ovums were inserted into this, and the time until elimination of zona pellucida was measured.
[2] = system: zona pellucida of a mouse unfertilized ovum; test: Swelling of zona pellucida (area in zona pellucida) of unfertilized ovum; type: cell-based; conditions: 37° C., 6 hours
Protocol: Further, the influence of glutathione on swelling of zona pellucida was confirmed. […] Preparation of ovum” were treated with HTF culture media containing glutathione at various concentration at 37° C. for 6 hours, then, the area in zona pellucida was photographed under a microscope and measured by an image analysis software. The conditions of zona pellucida at glutathione concentrations of 0 mM, 1 mM, 2 mM and 10 mM were observed by an invert microscope.
The influence of other reducing agents (DTT, ascorbic acid (VC) and epicatechin (EC)) exerted on thinning and swelling of zona pellucida was confirmed in the same manner as in Example 2. The extent of swelling of the zona pellucida of an unfertilized ovum by the concentration of each reducing agent was photographed under a microscope, and determined according to the following formula. % Relative area in ZP=(area of zona pellucida in each experiment/area of zona pellucida at 0 mM)×100

[3] = system: zona pellucida-eliminated ovum; conditions: frozen C57BL/6 sperms
[4] = system: frozen sperms of C57BL/6J mice; test: In vitro fertilization after sperm pre-incubation with MBCD and/or glutathione; type: cell-based, mouse; conditions: for number of 2-cell stage embryo(%) / number of 2-cell stage embryo: sperm pre-incubation MBCD −
Protocol: A sperm suspension is pre-incubated in 90 μl of a TYH culture medium at 37° C. for 30 minutes, and under a stereomicroscope, sperms showing motility are collected, avoiding nonmotile sperms, and used for fertilization. The pre-incubated sperm suspension (10 μl) is added to 90 μl of an HTF culture medium (±glutathione) into which cumulus-oocyte complexes (COCs) have been previously introduced (insemination), and these are co-incubated in an incubator for 5 to 6 hours (37° C., 5% CO2), thereby performing fertilization. Thereafter, the ovum is washed with drops of new HTF, and the ovum is observed. Those judged to parthenogenetic (only one pronucleus is recognized in ooplasm) are excluded, and on the following day (24 hours after insemination), only 2-cell stage embryos are selected, and fertilization rate is determined according to the following formula. In vitro fertilization rate (%)=(number of 2-cell stage embryo)/(number of 2-cell stage embryo+number of unfertilized ovum)×100
The TYH culture medium used for pre-incubation of sperms was prepared according to the above-described composition excepting that polyvinyl alcohol (1.0 mg/ml, available from SIGMA) was used instead of bovine serum albumin, and methyl-β-cyclodextrin (0.75 mM, available from SIGMA) was added. Further, the concentration of glutathione in the TYH culture medium was 1 mM, preparation was carried out in the same manner as in Example 1, and glutathione was added to the TYH culture medium directly before use. The influence on fertilization rate was compared among those containing methyl-β-cyclodextrin, those containing glutathione and those containing both compounds.
Fertilization was conducted with 90 μl of an HTF culture medium (in the case of addition of glutathione, the concentration was 1 mM) containing cumulus-oocyte complexes (COCs), in the same manner as in Example 1 (IVF/glutathione in table). As the sperm, frozen sperms of C57BL/6J mice were used, and processed according to FIG. 1. Thawed sperms were pre-incubated in a TYH culture medium (±glutathione, ±methyl-β-cyclodextrin) at 37° C. for 30 minutes, and sperms showing motility were collected and used for fertilization. The experiment was conducted five times.

[5] = system: 2-cell stage embryos transplanted into female mice; conditions: fertilization and incubation in HTF with 1 mM glutathione; frozen C57BL/6J sperms
Text: As the receptive female, ICR mice are used, and on the day before transplantation, external genitals are observed and those in the proestrus stage are selected and allowed to live together with vasoligated males. On the following day, those showing vaginal plug are used as the receptive female (on day 1 of pseudopregnancy). The skin and abdominal wall of the anesthetized receptive female are incised, and part of ovary, oviduct and uterus is exposed to the outside of the body through the incised portion, and fat adhered to ovary is fixed by a clamp. A 200 μl drop for transplantation is produced at the center of a dish, and embryos to be transplanted (20/individual) are transferred into the drop for transplantation. Next, 10 embryos are sucked together with a small amount of an incubation solution into a transplantation capillary. About ½ to ⅔ of the circumference of oviduct is incised, and the capillary containing embryos is inserted through the incised portion toward ampulla of oviduct and embryos are transplanted. Also into the opposite oviduct, embryos are transplanted by the same operation procedure.
The offspring rate (implanting rate) after embryo transplantation is determined according to the following formula. Offspring development rate (%)=(number of offspring)/(number of transplanted embryo)×100 […]

pH ([1]; HTF culture medium with glutathione 5 mM): 7.3 | pH ([1]; HTF culture medium with glutathione 10 mM): 7.4 | pH ([1]; HTF culture medium with glutathione 25 mM): 6.1 | pH ([1]; HTF culture medium with glutathione 50 mM): 4.0 | pH ([1]; HTF culture medium with glutathione 100 mM): 3.5 | pH ([1]; HTF culture medium with glutathione 200 mM): 3.1 | pH ([1]; HTF culture medium with glutathione 300 mM): 3.1
SMILES: N[C@@H](CCC(=O)N[C@@H](CS)C(=O)NCC(=O)O)C(=O)O [glutathione, reduced glutathione]
glutathione concentration at which swelling of zona pellucida was recognized remarkably [2]: ≥ 2 mM | swelling of zona pellucida ([2]; HTF with glutathione at various concentration): swelling of zona pellucida was confirmed depending on the glutathione concentration | fertilization and development of zona pellucida-eliminated ovum ([3]; glutathione 100 mM pre-treatment): fertilization occurred and the development of an ovum (ovum division) was confirmed | embryos developed to the blastocyst stage ([3]; of 70 zona pellucida-eliminated embryos (glutathione 100 mM)): 66 | effect of treating unfertilized ovums on fertilization rate ([4]; glutathione 1 mM in IVF medium): remarkable improvement in fertilization rate | number of 2-cell stage embryo(%) ([4]; glutathione + (1 mM), IVF glutathione −): 15% | number of 2-cell stage embryo ([4]; glutathione + (1 mM), IVF glutathione −, 344 oocytes): 53 | number of 2-cell stage embryo(%) ([4]; glutathione +, IVF glutathione +): 38% | number of 2-cell stage embryo ([4]; glutathione +, IVF glutathione +, 371 oocytes): 140 | number of 2-cell stage embryo(%) ([4]; glutathione −, IVF glutathione + (1 mM)): 36% | number of 2-cell stage embryo ([4]; glutathione −, IVF glutathione + (1 mM), 381 oocytes): 136 | effect of sperm pre-incubation on fertilization rate ([4]; sperms pre-incubated with 1 mM glutathione or 0.75 mM MBCD, 37° C., 30 minutes): improvement in fertilization rate was not observed | offspring development rate [5]: 53.8% | offspring development rate (offspring/transplanted embryos) [5]: 43/80
